This passage reports IC50 results from ChEMBL document CHEMBL1139638, “Synthesis and biological evaluation of chalcones and their derived pyrazoles as potential cytotoxic agents” (Bioorg Med Chem Lett, 2005).

The structures appear in SMILES notation.

One test deals with A549. In words: Antiproliferative activity against human cancer A-549 cell line. The note with it: Homo sapiens, A549. The class given is functional, cell-based.
The next test has as its system HT-29. In words: Antiproliferative activity against Colon cancer HT-29 cell line. The note with it: Homo sapiens, HT-29. The class given is functional, cell-based, Homo sapiens.
Another test concerns SiHa. In words: Antiproliferative activity against human SIHA cell line. Conditions: Homo sapiens, SiHa. The class given is functional, cell-based.
The next test deals with HCT-15. In words: Antiproliferative activity against human colon cancer HCT-15 cell line. It counts as functional, cell-based.
A further test has as its system SK-OV-3. In words: Antiproliferative activity against human cancer SKOV-3 cell line. It counts as functional, cell-based.
Test [1] deals with SW-620. In words: Inhibitory concentration against human colon cancer SW-620 cell line. The class given is functional, cell-based. Conditions: Homo sapiens, SW-620.
A further test concerns HOP-62. In words: Antiproliferative activity against human cancer HOP-62 cell line. It counts as functional, cell-based. Conditions: Homo sapiens, HOP-62.
The subject of another test is HEp-2. The test is described as follows: Antiproliferative activity against human cancer Hep-2 cell line. The class given is functional, cell-based.
A further test has as its system OVCAR-5. In words: Antiproliferative activity against human cancer OVCAR-5 cell line. The class given is functional, cell-based. Conditions: Homo sapiens, OVCAR-5.
The test system of the next test is DU-145. In words: Antiproliferative activity against human cancer DU-145 cell line. It counts as functional, cell-based. Conditions: Homo sapiens, DU-145.
The subject of a further test is SNB-78. In words: Antiproliferative activity against human cancer SNB-78 cell line. It counts as functional, cell-based. Conditions: Homo sapiens, SNB-78.
The next test deals with PC-3. The test is described as follows: Antiproliferative activity against prostate cancer PC-3 cell line. Conditions: Homo sapiens, PC-3. It counts as functional, cell-based, Homo sapiens.
Test [2] concerns SW-620. The test is described as follows: Antiproliferative activity against colon cancer SW-620 cell line. The class given is functional, cell-based. The note with it: Homo sapiens.

Usually IC50 stands for the concentration at which inhibition is half-maximal.

Turning to `COc1cc(/C=C/C(=O)c2ccccc2)cc(OC)c1OC`, the IC50 is 8.96 µM in the test on A549; 12 µM in the test on HT-29; 20.8 µM in the test on SiHa; 15.8 µM in the test with HCT-15; 56.5 µM in the test with SK-OV-3; 8.45 µM in the test with SW-620 [1]. The results for the IC50 in the test with HOP-62 and in the test with HEp-2 were 16.6 µM and 11.9 µM, respectively.
Turning to `COc1ccc(/C=C/C(=O)c2cc(OC)c(OC)c(OC)c2)cc1OC`, the IC50 with A549 amounted to 6.9 µM; in the test with HT-29 it was 6.64 µM; in the test on SiHa, 9.35 µM; in the test with OVCAR-5 it was 8.3 µM; in the test on HCT-15, 7.95 µM; with SK-OV-3 it was 6.09 µM. For the same compound, the IC50 turned out to be 9.21 µM in the test with DU-145; 22.8 µM in the test on SNB-78; 7.85 µM in the test with PC-3; 5.8 µM with SW-620 [1]; 8.12 µM with HOP-62; 6.15 µM with HEp-2.
Consider `COc1cc(-c2cc(-c3ccc(F)cc3)[nH]n2)cc(OC)c1OC`, for which the IC50 in the test with A549 amounted to 3.8 µM; with HT-29 it was 4.75 µM; in the test on SiHa, 1.08 µM; with OVCAR-5, 6.45 µM; in the test with HCT-15 it was 0.48 µM; in the test on DU-145, 3.87 µM. In addition, the IC50 with SNB-78 amounted to 22.4 µM; in the test on PC-3 it was 8.93 µM; with SW-620 [1], 5.9 µM; in the test with HOP-62, 0.56 µM; in the test on HEp-2, 3.81 µM.
In the case of `COc1cc(C(=O)/C=C/c2ccccc2)cc(OC)c1OC`, the IC50 with A549 amounted to 21.3 µM; with HT-29 it was 14.4 µM; in the test on SiHa it was 36.5 µM; in the test on OVCAR-5, 8.9 µM; in the test on SW-620 [2] it was 16 µM; in the test on HCT-15, 8.77 µM. The IC50 in the test with SK-OV-3 was 21 µM; in the test on DU-145 it was 25.4 µM; in the test with SNB-78 it was 22.8 µM; with PC-3 it was 41.1 µM; in the test on HOP-62, 20.5 µM; in the test with HEp-2, 7.55 µM.
With `COc1cc(-c2nn(C(C)=O)c(-c3ccc4c(c3)OCO4)c2OC(C)=O)cc(OC)c1OC`, the IC50 in the test with HT-29 was found to be 15.6 µM; in the test with SiHa, 58.1 µM; with HCT-15, 8.9 µM; in the test on SK-OV-3 it was 39.1 µM; in the test on DU-145 it was 48 µM; with SNB-78, 33 µM. Besides, the IC50 with PC-3 was determined as 18.1 µM; in the test on HOP-62, 18.4 µM; in the test on HEp-2 it was 61.6 µM.
`COc1cc(C(=O)/C=C/c2cc(OC)c(OC)c(OC)c2)ccc1OC(C)=O`: the IC50 is 15.6 µM in the test with A549; 10.5 µM in the test on HT-29; 33 µM in the test with SiHa; 7.75 µM with HCT-15; 8.35 µM with SK-OV-3; 9.2 µM in the test on HOP-62. This compound came in with an IC50 in the test with HEp-2 of 6.95 µM.
With `COc1cc(-c2cc(-c3ccc4c(c3)OCO4)[nH]n2)cc(OC)c1OC`, the IC50 was found to be 8.85 µM in the test on A549; 6.01 µM in the test with HT-29; 10 µM in the test with SiHa; 33 µM in the test with OVCAR-5; 15.6 µM in the test with HCT-15; 8.56 µM in the test on DU-145. The IC50 came to 74 µM in the test with SNB-78; 9.55 µM in the test with PC-3; 9.25 µM in the test on SW-620 [1]; 13.5 µM in the test with HOP-62; 34 µM in the test with HEp-2.
